For 18 compounds, DC50 results are on record in patent US20260028354A1, “TETRAHYDRONAPHTHALENE DERIVATIVES AS ESTROGEN RECEPTOR DEGRADERS” (REGENT OF THE UNIVERSITY OF MICHIGAN, priority 2022, published 2026).

The nature of the assay: Western blot analysis for "B" compounds. The format is cell-based. The note with it: read-out: Traditional Western Degradation Potency (DC50). The procedure, abridged: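 Compound-treated cells lysed in RIPA buffer with protease inhibitors; equal protein (BCA) run on 10% SDS-PAGE, transferred to PVDF and probed with target antibodies. Band intensities quantified by densitometry and normalized to GAPDH.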

As for `O=C1CCC(N2Cc3cc4c(cc3C2=O)NC(=O)[C@@H]2CN(CC3CCN(c5ccc([C@@H]6c7ccc(O)cc7CC[C@@H]6c6ccccc6)cc5)CC3)CCN42)C(=O)N1` (stereo partly drawn) [Compound B134, (4aS)-9-(2,6-dioxopiperidin-3-yl)-3-((1-(4-((1R,2S)-6-hydroxy-2-phenyl-1,2,3,4-tetrahydronaphthalen-1-yl)phenyl)piperidin-4-yl)methyl)-2,3,4,4a,9,10-hexahydropyrazino[1,2-a]pyrrolo[3,4-g]quinoxaline-5,8(1H,6H)-dione], the 50% degradation concentration (DC50) was > 100 nM.

Turning to `CN1C[C@@H]2CN(CC3CCN(c4ccc([C@@H]5c6ccc(O)cc6CC[C@@H]5c5ccccc5)cc4)CC3)CCN2c2cc3c(cc21)C(=O)N(C1CCC(=O)NC1=O)C3` (stereo partly drawn) [Compound B137, 3-((S)-3-((1-(4-((1R,2S)-6-hydroxy-2-phenyl-1,2,3,4-tetrahydronaphthalen-1-yl)phenyl)piperidin-4-yl)methyl)-6-methyl-8-oxo-2,3,4,4a,5,6,8,10-octahydropyrazino[1,2-a]pyrrolo[3,4-g]quinoxalin-9(1H)-yl)piperidine-2,6-dione], the DC50 is 10 to 100 nM.

As for `O=C1CCC(N2C(=O)c3cc4c(cc3C2=O)CN(CC(=O)N2CCC3(CC2)CCN(c2ccc([C@@H]5c6ccc7[nH]ncc7c6CC[C@@H]5c5ccccc5)cc2)CC3)C4)C(=O)N1` (stereo partly drawn) [Compound B139, 2-(2,6-dioxopiperidin-3-yl)-6-(2-oxo-2-(9-(4-((6R,7S)-7-phenyl-6,7,8,9-tetrahydro-3H-benzo[e]indazol-6-yl)phenyl)-3,9-diazaspiro[5.5]undecan-3-yl)ethyl)-6,7-dihydropyrrolo[3,4-f]isoindole-1,3(2H,5H)-dione], the DC50 fell in the range of 10 to 100 nM.

In the case of `O=C1CCC(N2C(=O)c3cc4c(cc3C2=O)CN(CC(=O)N2CC3(CCN(c5ccc([C@H]6c7ccc(O)cc7CC[C@H]6c6ccccc6)cc5)CC3)C2)C4)C(=O)N1` (stereo partly drawn) [Compound B179, 2-(2,6-dioxopiperidin-3-yl)-6-(2-(7-(4-((1S,2R)-6-hydroxy-2-phenyl-1,2,3,4-tetrahydronaphthalen-1-yl)phenyl)-2,7-diazaspiro[3.5]nonan-2-yl)-2-oxoethyl)-6,7-dihydropyrrolo[3,4-f]isoindole-1,3(2H,5H)-dione], the DC50 was > 100 nM.

With `O=C1CCC(N2C(=O)c3cc4c(cc3C2=O)CN(CC(=O)N2CCC3(CC2)CCN(c2ccc([C@H]5c6ccc(O)cc6CC[C@H]5c5ccccc5)cc2)CC3)C4)C(=O)N1` (stereo partly drawn) [Compound B180, 2-(2,6-dioxopiperidin-3-yl)-6-(2-(9-(4-((1S,2R)-6-hydroxy-2-phenyl-1,2,3,4-tetrahydronaphthalen-1-yl)phenyl)-3,9-diazaspiro[5.5]undecan-3-yl)-2-oxoethyl)-6,7-dihydropyrrolo[3,4-f]isoindole-1,3(2H,5H)-dione], the DC50 was > 100 nM.

For the compound `O=C1CCC(N2C(=O)c3cc4c(cc3C2=O)CN(C2CCC(CNC3CN(c5ccc([C@@H]6c7ccc(O)cc7CC[C@@H]6c6ccccc6)cc5)C3)CC2)C4)C(=O)N1` (stereo partly drawn) [Compound B181, 2-(2,6-dioxopiperidin-3-yl)-6-(4-(((1-(4-((1R,2S)-6-hydroxy-2-phenyl-1,2,3,4-tetrahydronaphthalen-1-yl)phenyl)azetidin-3-yl)amino)methyl)cyclohexyl)-6,7-dihydropyrrolo[3,4-f]isoindole-1,3(2H,5H)-dione], the DC50 was > 100 nM.

With `O=C1CCC(N2C(=O)c3cc4c(cc3C2=O)CN(C2CCC3(CC2)CCN(c2ccc([C@@H]5c6ccc(O)cc6CC[C@@H]5c5ccccc5)cc2)CC3)C4)C(=O)N1` (stereo partly drawn) [Compound B189, 2-(2,6-dioxopiperidin-3-yl)-6-(3-(4-((1R,2S)-6-hydroxy-2-phenyl-1,2,3,4-tetrahydronaphthalen-1-yl)phenyl)-3-azaspiro[5.5]undecan-9-yl)-6,7-dihydropyrrolo[3,4-f]isoindole-1,3(2H,5H)-dione], the DC50 is > 100 nM.

`O=C1CCC(N2C(=O)c3cc4c(cc3C2=O)CN(CC(=O)N2CCC3(CC2)CCN(c2ccc([C@@H]5c6ccc(O)cc6CC[C@@H]5c5ccccc5)cc2)CC3)CC4)C(=O)N1` (stereo partly drawn) [Compound B194, 2-(2,6-dioxopiperidin-3-yl)-6-(2-(9-(4-((1R,2S)-6-hydroxy-2-phenyl-1,2,3,4-tetrahydronaphthalen-1-yl)phenyl)-3,9-diazaspiro[5.5]undecan-3-yl)-2-oxoethyl)-5,6,7,8-tetrahydro-1H-pyrrolo[3,4-g]isoquinoline-1,3(2H)-dione]: the DC50 fell in the range of 10 to 100 nM.

For `O=C1CCC(N2C(=O)c3cc4c(cc3C2=O)CN(CC(=O)N2CCC3(CC2)CCN(c2ccc([C@@H]5c6ccc(O)cc6CC[C@@H]5c5ccccc5)cc2)CC3)CC4)C(=O)N1` (stereo partly drawn) [Compound B195, 2-(2,6-dioxopiperidin-3-yl)-6-(2-(9-(4-((1R,2S)-6-hydroxy-2-phenyl-1,2,3,4-tetrahydronaphthalen-1-yl)phenyl)-3,9-diazaspiro[5.5]undecan-3-yl)-2-oxoethyl)-5,6,7,8-tetrahydro-1H-pyrrolo[3,4-g]isoquinoline-1,3(2H)-dione], the DC50 fell in the range of 10 to 100 nM.

For the compound `O=C1CCC(N2Cc3cc4c(cc3C2=O)CN(C(=O)C2CCN(CC3CCN(c5ccc([C@@H]6c7ccc(O)cc7CC[C@@H]6c6ccccc6)cc5)CC3)CC2)C4)C(=O)N1` (stereo partly drawn) [Compound B199, 3-(6-(1-((1-(4-((1R,2S)-6-hydroxy-2-phenyl-1,2,3,4-tetrahydronaphthalen-1-yl)phenyl)piperidin-4-yl)methyl)piperidine-4-carbonyl)-1-oxo-3,5,6,7-tetrahydropyrrolo[3,4-f]isoindol-2(1H)-yl)piperidine-2,6-dione], the DC50 was > 100 nM.

For `CN(C1CCC(C(=O)N2Cc3cc4c(cc3C2)C(=O)N(C2CCC(=O)NC2=O)C4=O)CC1)C1CCN(c2ccc([C@@H]3c4ccc(O)cc4CC[C@@H]3c3ccccc3)cc2)CC1` (stereo partly drawn) [Compound B200, 2-(2,6-dioxopiperidin-3-yl)-6-(4-((1-(4-((1R,2S)-6-hydroxy-2-phenyl-1,2,3,4-tetrahydronaphthalen-1-yl)phenyl)piperidin-4-yl)(methyl)amino)cyclohexane-1-carbonyl)-6,7-dihydropyrrolo[3,4-f]isoindole-1,3(2H,5H)-dione], the DC50 is 10 to 100 nM.

`CN(C1CCC(C(=O)N2Cc3cc4c(cc3C2)C(=O)N(C2CCC(=O)NC2=O)C4)CC1)C1CCN(c2ccc([C@@H]3c4ccc(O)cc4CC[C@@H]3c3ccccc3)cc2)CC1` (stereo partly drawn) [Compound B201, 3-(6-(4-((1-(4-((1R,2S)-6-hydroxy-2-phenyl-1,2,3,4-tetrahydronaphthalen-1-yl)phenyl)piperidin-4-yl)(methyl)amino)cyclohexane-1-carbonyl)-1-oxo-3,5,6,7-tetrahydropyrrolo[3,4-f]isoindol-2(1H)-yl)piperidine-2,6-dione]: the DC50 was in the range of 10 to 100 nM.

As for `CN(C1CCC(CN2Cc3cc4c(cc3C2)C(=O)N(C2CCC(=O)NC2=O)C4)CC1)C1CCN(c2ccc([C@@H]3c4ccc(O)cc4CC[C@@H]3c3ccccc3)cc2)CC1` (stereo partly drawn) [Compound B202, 3-(6-((4-((1-(4-((1R,2S)-6-hydroxy-2-phenyl-1,2,3,4-tetrahydronaphthalen-1-yl)phenyl)piperidin-4-yl)(methyl)amino)cyclohexyl)methyl)-1-oxo-3,5,6,7-tetrahydropyrrolo[3,4-f]isoindol-2(1H)-yl)piperidine-2,6-dione], the DC50 was > 100 nM.

Consider `O=C1CCC(N2C(=O)c3cc4c(cc3C2=O)CN(CC2(F)CCN(C(=O)C3CN(c5ccc([C@@H]6c7ccc(O)cc7CC[C@@H]6c6ccccc6)cc5)C3)CC2)C4)C(=O)N1` (stereo partly drawn) [Compound B262, 2-(2,6-dioxopiperidin-3-yl)-6-((4-fluoro-1-(1-(4-((1R,2S)-6-hydroxy-2-phenyl-1,2,3,4-tetrahydronaphthalen-1-yl)phenyl)azetidine-3-carbonyl)piperidin-4-yl)methyl)-6,7-dihydropyrrolo[3,4-f]isoindole-1,3(2H,5H)-dione], for which the 50% degradation concentration (DC50) was > 100 nM.

Take `O=C1CCC(N2C(=O)c3cc4c(cc3C2=O)CN(CC2CN(C(=O)C3CN(c5ccc([C@@H]6c7ccc(O)cc7CC[C@@H]6c6ccccc6)cc5)C3)C2)C4)C(=O)N1` (stereo partly drawn) [Compound B263, 2-(2,6-dioxopiperidin-3-yl)-6-((1-(1-(4-((1R,2S)-6-hydroxy-2-phenyl-1,2,3,4-tetrahydronaphthalen-1-yl)phenyl)azetidine-3-carbonyl)azetidin-3-yl)methyl)-6,7-dihydropyrrolo[3,4-f]isoindole-1,3(2H,5H)-dione]: the DC50 is > 100 nM.

In the case of `O=C1CCC(N2C(=O)c3cc4c(cc3C2=O)CN(CC2CCN(C(=O)C3CN(c5ccc([C@@H]6c7ccc(O)cc7CC[C@@H]6c6ccccc6)cc5)C3)CC2)C4)C(=O)N1` (stereo partly drawn) [Compound B264, 2-(2,6-dioxopiperidin-3-yl)-6-((1-(1-(4-((1R,2S)-6-hydroxy-2-phenyl-1,2,3,4-tetrahydronaphthalen-1-yl)phenyl)azetidine-3-carbonyl)piperidin-4-yl)methyl)-6,7-dihydropyrrolo[3,4-f]isoindole-1,3(2H,5H)-dione], the DC50 was > 100 nM.

On to `O=C1CCC(N2C(=O)c3cc4c(cc3C2=O)CN(CC2(F)CCN(C(=O)C3(F)CN(c5ccc([C@@H]6c7ccc(O)cc7CC[C@@H]6c6ccccc6)cc5)C3)CC2)C4)C(=O)N1` (stereo partly drawn) [Compound B265, 2-(2,6-dioxopiperidin-3-yl)-6-((4-fluoro-1-(3-fluoro-1-(4-((1R,2S)-6-hydroxy-2-phenyl-1,2,3,4-tetrahydronaphthalen-1-yl)phenyl)azetidine-3-carbonyl)piperidin-4-yl)methyl)-6,7-dihydropyrrolo[3,4-f]isoindole-1,3(2H,5H)-dione], for which the DC50 is > 100 nM.

Turning to `O=C1CCC(N2C(=O)c3cc4c(cc3C2=O)CN(CC2CCN(C(=O)C3(F)CN(c5ccc([C@@H]6c7ccc(O)cc7CC[C@@H]6c6ccccc6)cc5)C3)CC2)C4)C(=O)N1` (stereo partly drawn) [Compound B266, 2-(2,6-dioxopiperidin-3-yl)-6-((1-(3-fluoro-1-(4-((1R,2S)-6-hydroxy-2-phenyl-1,2,3,4-tetrahydronaphthalen-1-yl)phenyl)azetidine-3-carbonyl)piperidin-4-yl)methyl)-6,7-dihydropyrrolo[3,4-f]isoindolc-1,3(2H,5H)-dionc], the DC50 is > 100 nM.
